The record followed here is patent US20110144039A1, “ANTIOXIDATIVE AND HEPATOPROTECTIVE COMPOSITIONS CONTAINING DIARYHEPTANOIDS FROM ALNUS JAPONICA” (RNL BIO CO., LTD., priority 2009, published 2011).

Where two headings read alike, the source gives them in different places.

Test [1] concerns primarily cultured hepatocytes of rats. The test is described as follows: Hepatoprotective activity: inhibition of tert-butyl hydroperoxide-induced necrosis (LDH release) in primary hepatocytes. The format is cell-based, white rats. The note with it: 1.2 mM tBH for 50 minutes. Here is the method:
In order to measure the hepatoprotective activities of the A. japonica sample fractions, the primarily cultured hepatocytes of white rats were isolated, and then the inhibitory abilities of the fractions against necrosis induced by treating the isolated hepatocytes with 1.2 mM of tert-butyl hydroperoxide for 50 minutes were examined (Park E J et al., Planta Med, 71: 508˜513, 2005).
Hepatocytes were isolated from white rats according to the method of Seglen et al. Briefly, white rats were anesthetized and the abdomen was incised. Then, a catheter was inserted into the portal vein and perfused with Ca^2+, Mg^2+-free Hank's balanced salt solution bubbled with a mixed gas of 5% CO2 and 95% O2 at 37° C. so as to remove blood from the liver. Then, the catheter was perfused with 0.05% type IV collagenase and 1 mM CaCl2 solution. The liver tissue was removed from the body, and a hepatocyte suspension was prepared from the liver tissue and centrifuged at 50×g for 2 minutes. The precipitated hepatocytes were collected and washed twice with Ca^2+, Mg^2+-free Hank's balanced salt solution. The washed hepatocytes were added at a concentration of 1×10^6 cells/ml to Williams' Medium E (WME, GibcoBRL, USA) containing 10% (v/v) fetal bovine serum (FBS, GibcoBRL), 10^−8 M insulin, 50 U/ml of penicillin and 50 μg/ml of streptomycin (Sigma) in an incubator coated with type I collagen, and were then cultured under 5% CO2 at 37° C. After 2 hours of the culture, the cells were washed with Hank's balanced salt solution to remove non-adhered cells, and the medium was replaced with fresh medium. Then, the cells were cultured under 5% CO2 at 37° C. for 16 hours and then used in the experiment.
Herein, tBH is metabolized into free radical intermediates, which initiate lipid peroxidation to affect the cell integrity, and release LDH into the medium, thus forming covalent bonds with cellular molecules causing damage to the cells.
Background: LDH in the medium is a marker of cell lysis.

A short description of test [2]: TOSC (total oxyradical scavenging capacity) assay, peroxyl radicals generated from ABAP. The class given is biochemical. The note with it: both oxyradicals; for scavenging capacity for peroxyl radicals and peroxynitrite: rank in words. Here is the method: In order to measure the antioxidative activities of the A. japonica sample fractions, the radical scavenging capacities of the fractions were measured in the following manner using the total oxyradical scavenging capacity (TOSC) assay. The TOSC assay was performed by a modification of the method proposed by Winston et al. (Free Radic. Biol. Med., 24: 480˜493, 1998) (J. Agric. Food Chem. 56, 10510-10514, 2008).
Peroxyl radicals were generated by the thermal homolysis of 2,2′-azobisamidinopropane (ABAP) at 35° C., and peroxynitrite was generated by the spontaneous decomposition of SIN-1.
Then, a total volume of 1 ml of the reaction solution was placed in a 10-ml vial sealed with a rubber septum. For detection of the produced ethylene gas, a gas chromatograph (GC), equipped with a DB-05 capillary column and a flame ionization detector) (FID), was used, an oven set was 60° C., and the injector and the detector were set at 180° C. As a mobile phase, helium was injected into the column at a rate of 2 ml/min. For quantitative determination of the amount of ethylene gas in the vial, 150 μl of gas was sampled from the vial with a gas-tight syringe using a headspace technique and injected into the injector.
The area under the kinetic curve (AUC) was obtained by integrating the graph determined from the results of the above experiment, and the TOSC value was calculated according to the following equation 1 and shown in Table 1 below:
TOSC=100−(∫SA/∫CA×100) [Equation 1]

Setting [3] is: Rattus norvegicus, Hepatocyte, 50 min, means ± SE of three independent experiments in triplicate, read-out: ED50 (the source's name).
Setting [4] is: Rattus norvegicus, Hepatocyte, 50 min, read-out: LDH release inhibitory rate (ED50).
Where [5] appears, read: read-out: LDH release inhibitory rate (ED50).

As for `COc1cc(C2Oc3cc([C@H]4Oc5cc(O)cc(O)c5C(=O)[C@@H]4O)ccc3OC2CO)ccc1O` (stereo partly shown) [Silibinin, reference compound], the EC50 in test [1] (setting [3]) came out at 131 ± 6.7 µM; in test [1] (setting [4]), 131 µM.
On to `O=C(CCc1ccc(O)c(O)c1)C[C@@H](O)CCc1ccc(O)c(O)c1` [hirsutanonol], for which the “scavenging capacity for peroxyl radicals and peroxynitrite” value (“scavenging capacity” below) in test [2] is recorded as “highest”. Also, the EC50 in test [1] (setting [3]) came to 6.28 ± 0.81 µM; in test [1] (setting [4]), 6.28 µM.
On to `O=C(/C=C/CCc1ccc(O)c(O)c1)CCc1ccc(O)c(O)c1` [hirsutenone], for which the “scavenging capacity” value in test [2] is “highest”. Also, the results for the EC50 in test [1] (setting [3]) and in test [1] (setting [4]) were 3.08 ± 0.14 µM and 3.08 µM, respectively.
Regarding alnuside A, the “scavenging capacity” value in test [2] is listed as “second highest”. Moreover, in test [1] (setting [5]), the EC50 turned out to be 26.5 µM.
In the same order, the values of alnuside B are “second highest” and 25.9 µM.
On to “platyphyllonol-5-xylose [Platyphyllone-5-xylose]”, for which the “activities against reactive oxygen species” value in test [2] (in words) is “weak”. The “effect on the inhibition of LDH release” value in test [1] (in words) is recorded as “no effect”.
With rubranoside C, the “scavenging capacity” value in test [2] is on record as “second highest”. Further, the EC50 in test [1] (setting [5]) stood at 12.8 µM.
